Experimental findings from US6489331B1, “Remedies for diabetes” (Kyowa Hakko Kogyo Co., Ltd., priority 1998, dated 2002) are described below.

One series has as its system MIN6 cell. As to the kind of experiment: Insulin secretion enhancing action in cultured β-cell (MIN6). Format: cell-based. The following applies: for Amount of secreted insulin (ng/ml) avg: in the presence of 14.5 mM glucose. The method, then: Culture of the MIN6 cells and insulin secretion test utilizing the MIN6 cells were performed basically according to the methods described in literature (Ishihara et al., Diabetologia, vol. 36, pp.1139-1145, 1993). The effect of a compound on the insulin secretion in the presence of 14.5 mM glucose was determined by measuring insulin amounts in cell culture supernatants collected as follows. MIN6 cells cultured on a 24-well plate were washed twice by using 1 ml of Buffer A (119 mM sodium chloride, 4.74 mM potassium chloride, 2.54 mM calcium chloride, 1.19 mM magnesium sulfate, 1.19 mM potassium dihydrogenphosphate, 10 mM 2-[4-(2-hydroxyethyl)-1-piperazinyl]ethanesulfonic acid, 0.1% bovine serum albumin, pH 7.3) containing 2 mM glucose, and then were incubated in 1 ml of Buffer A containing 2 mM glucose at 37° C. for 45 minutes. After the incubation, the culture supernatant was changed to Buffer A (0.9 ml) containing a test compound at various concentrations and 2 mM glucose, and the cells were further incubated at 37° C. for 15 minutes. The MIN6 cells were stimulated with glucose by the addition of Buffer A (0.1 ml) containing 127 mM glucose to the culture (final glucose concentration: 14.5 mM). After the stimulation, the cells were further incubated at 37° C. for 45 minutes, and then the culture supernatant was collected.
Separately, the effect of a compound on the insulin secretion in the presence of 5 mM glucose was determined by measuring insulin amounts in cell culture supernatants collected as follows. MIN6 cells cultured on a 24-well plate were washed twice by using 1 ml of Buffer A containing 5 mM glucose, and then the culture supernatant was changed to Buffer A (0.9 ml) containing a test compound at various concentrations and 5 mM glucose. Then, the cells were incubated at 37° C. for 45 minutes (final glucose concentration: 5 mM), and the culture supernatant was collected.
After the culture supernatant was diluted with a phosphate buffer containing 1% bovine serum albumin, 0.1% Tween 20, 0.12% disodium ethylenediaminetetraacetate and 0.1% sodium azide, antibody-reactive insulin secreted in the culture supernatant was quantified by enzyme immunoassay or radio immunoassay. […] The results are indicated as averages (avg) for 3 to 4 samples with standard error values (se).

The subject of series [1] is Wistar male rats. Conditions: iv; for Area of plasma insulin, test compound-administered group: after glucose-loading (10 mg/kg iv).
Method: Wistar male rats (body weight: about 250 g) starved for 18 hours were anesthetized by intraperitoneal administration of sodium pentobarbital (50 mg/kg), and fixed at the dorsal position. Cannulas were inserted into the right common carotid artery for blood collection and the left femoral vein for administration of drug and glucose, respectively. To these rats were intravenously administered 500 U/kg of heparin to prevent blood coagulation. After about 0.2 ml of blood was collected, a drug was intravenously administered. Two minutes after the administration of the drug, blood was collected, and then glucose (10 mg/kg) was immediately administered intravenously. Then, blood was collected every 20 seconds for 2 minutes. Insulin concentration in plasma obtained by centrifugation was measured by radioimmunoassay. From an insulin concentration which increased after the glucose-loading, its area was calculated and considered the amount of secreted insulin. The insulin level was indicated as the amount of rat insulin (ng/mL).
The test system of another series is dd male mice. As to the kind of experiment: Acute toxicity test (minimum lethal dose). It is filed as in vivo. Conditions: po, mortality after seven days. The method, then: A test compound was orally administered to dd male mice (body weight: 20±1 g, n=3). Mortality rate after seven days was measured to determine minimum lethal dose (MLD).
In series [2] the test system is Wistar male rats. The series is described as follows: Hyperglycemia suppression action after glucose-loading. Format: in vivo. Conditions: 30 mg/kg, po. The method, then: These rats were used for the experiment after starvation for 18 hours. A test compound was orally administered 1 hour before oral administration of glucose (2 g/kg). Jugular venous blood was collected before the administration of test compound, before the glucose-loading, 5, 10, 15, 30, 45 and 60 minutes after the glucose-loading, and plasma glucose concentration was measured (enzymatic method). The insulin level was indicated as amount of rat insulin (ng/mL).

Each structure is given as a SMILES string. Counter-ions that a name gives are not always drawn. Like-named read-outs stand apart in the source and are kept apart here.

By melting point is commonly meant the temperature of the solid-liquid transition. `CCCN1C(=O)N2C[C@H](C(C)(C)C)N=C2c2[nH]c(C3CCCC3)nc21.Cl` [Compound 12, (S)-8-tert-butyl-2-cyclopentyl-7,8-dihydro-4-propyl-1H-imidazo[2,1-i]purin-5(4H)-one hydrochloride] returned a melting point of 184 to 186 °C. In the series on MIN6 cell (drug concentration 1.0 μM), the “Amount of secreted insulin (ng/ml) avg” value turned out to be 227.8 ng/mL.
In the case of `CCCN1C(=O)N2C[C@@H](Cc3ccccc3)N=C2c2[nH]c(C3CCCC3)nc21` [Compound 16, (R)-8-benzyl-2-cyclopentyl-7,8-dihydro-4-propyl-1H-imidazo[2,1-i]purin-5(4H)-one hydrochloride], the “% Ratio based on control (area of plasma insulin)” value (from here on “% Ratio based on control”) in the series on Wistar male rats [1] (3 mg/kg) amounted to 246 ± 19%. For the same compound, the “Area of plasma insulin, test compound-administered group” value (“Area … test compound-administered group” for short) in the series on Wistar male rats [1] (3 mg/kg) was found to be 17.28 ± 1.35 ng·s/mL. Also, in the series on dd male mice, the “minimum lethal dose (MLD)” value was “not less than 300 mg/kg”. Also, the “Amount of secreted insulin (ng/ml) avg” value in the series with MIN6 cell (drug concentration 1.0 μM) was 229.5 ng/mL. The Plasma glucose concentration in the series with Wistar male rats [2] (0 minute (before glucose-loading)) worked out at 102 ± 4.6 mg/dL; in the series with Wistar male rats [2] (5 minutes after glucose-loading), 147 ± 5.7 mg/dL; with Wistar male rats [2] (10 minutes after glucose-loading), 183 ± 9.1 mg/dL; in the series on Wistar male rats [2] (15 minutes after glucose-loading) it was 186 ± 8.7 mg/dL; in the series on Wistar male rats [2] (30 minutes after glucose-loading), 167 ± 3.3 mg/dL; with Wistar male rats [2] (45 minutes after glucose-loading), 165 ± 4.8 mg/dL. The values for the Plasma glucose concentration in the series on Wistar male rats [2] (60 minutes after glucose-loading) and with Wistar male rats [2] (−1 minute) were 178 ± 4.7 mg/dL and 114 ± 4.5 mg/dL, respectively.
As for `CCCN1C(=O)N2CC(Cc3cccc(F)c3)N=C2c2[nH]c(C3CCCC3)nc21` (stereo not shown) [Compound 19, 2-cyclopentyl-8-(3-fluorobenzyl)-7,8-dihydro-4-propyl-1H-imidazo[2,1-i]purin-5(4H)-one hydrochloride], in the series on Wistar male rats [1] (1 mg/kg), the “% Ratio based on control” value is given as 291 ± 42% and the “Area … test compound-administered group” value turned out to be 13.41 ± 1.95 ng·s/mL. Moreover, in the series with MIN6 cell (drug concentration 1.0 μM), the “Amount of secreted insulin (ng/ml) avg” value is 223.8 ng/mL.
Turning to `CCCN1C(=O)N2CC(Cc3ccc(Br)cc3)N=C2c2[nH]c(C3CCCC3)nc21` (stereo not shown) [Compound 23, 8-(4-bromobenzyl)-2-cyclopentyl-7,8-dihydro-4-propyl-1H-imidazo[2,1-i]purin-5(4H)-one hydrochloride], in the series with Wistar male rats [1] (1 mg/kg), the “% Ratio based on control” value amounted to 228 ± 50% and the “Area … test compound-administered group” value came out at 11.85 ± 2.58 ng·s/mL. The “Amount of secreted insulin (ng/ml) avg” value with MIN6 cell (drug concentration 1.0 μM) was 249.9 ng/mL.
In the same order, the values of `CCCN1C(=O)N2CC(CCc3ccccc3)N=C2c2[nH]c(C3CCCC3)nc21` (stereo not shown) [Compound 31, 2-cyclopentyl-7,8-dihydro-8-phenethyl-4-propyl-1H-imidazo[2,1-i]purin-5(4H)-one hydrochloride] are 173 ± 16%, 9.00 ± 0.84 ng·s/mL and 220.5 ng/mL.
On to `CCCc1nc2c([nH]1)C1=N[C@H](Cc3ccccc3)CN1C(=O)N2CCC` [Compound 35, (R)-8-benzyl-7,8-dihydro-2,4-dipropyl-1H-imidazo[2,1-i]purin-5(4H)-one hydrochloride], for which, in the series with Wistar male rats [1] (1 mg/kg), the “% Ratio based on control” value worked out at 178 ± 23% and the “Area … test compound-administered group” value was 15.69 ± 2.04 ng·s/mL. In addition, the “Amount of secreted insulin (ng/ml) avg” value with MIN6 cell (drug concentration 1.0 μM) worked out at 232.4 ng/mL.
Turning to `CCCN1C(=O)N2C[C@@H](Cc3ccc(F)cc3)N=C2c2[nH]c(-c3ccoc3)nc21` [Compound 54, (R)-8-(4-fluorobenzyl)-2-(3-furyl)-7,8-dihydro-4-propyl-1H-imidazo[2,1-i]purin-5(4H)-one], the melting point was 149 to 150 °C. The “Amount of secreted insulin (ng/ml) avg” value in the series on MIN6 cell (drug concentration 1.0 μM) turned out to be 216.1 ng/mL.
`CCCN1C(=O)N2CC(Cc3cc(Cl)ccc3Cl)N=C2c2[nH]c(C3CCCC3)nc21` (stereo not shown) [Compound 65, 2-cyclopentyl-8-(2,5-dichlorobenzyl)-7,8-dihydro-4-propyl-1H-imidazo[2,1-i]purin-5(4H)-one hydrochloride]: in the series on MIN6 cell (drug concentration 1.0 μM), the “Amount of secreted insulin (ng/ml) avg” value was found to be 207.8 ng/mL.
`COc1ccc(Cl)cc1C(=O)NCCc1ccc(S(=O)(=O)NC(=O)NC2CCCCC2)cc1` [Glibenclamide, reference compound]: the “Amount of secreted insulin (ng/ml) avg” value with MIN6 cell (drug concentration 0.1 μM) was determined as 177.8 ng/mL. For the same compound, in the series with MIN6 cell (low glucose concentration (5 mM), controls for comparison), the “insulin secretion enhancing action at low glucose” value was “showed marked secretion enhancing action”.
